Results taken from patent publication US20070082903A1, “Remedy for rheumatoid arthritis” (priority 2003, published 2007).

Key:
[1] = test system: mice with collagen arthritis; assay: antiarthritic effect in mice with collagen arthritis; format: in vivo; conditions: considered on the basis of the rat adjuvant arthritis and mouse collagen arthritis results
Description: On the other hand, it is known that 3-[(1S)-1-(2-fluorobiphenyl-4-yl)ethyl]-5-{[amino(morpholin-4-yl)methylene]amino}isoxazole (hereinafter referred to also as “compound (I)” or “SMP-114”) is useful as, for example, an excellent medicament for treating autoimmune diseases, inflammatory diseases and the like.
It was 5 mg/kg (once-a-day oral administration) in the case of mice with collagen arthritis (F. Nishikaku, “Annals of the Rheumatic Diseases”, vol. 61 supplement 1, p. 194 (2002)).

[2] = repeated oral administration toxicity test, SMP-114 concentration in serum (HPLC-fluorescence); format: in vivo; conditions: both sexes, Crj:CD(SD), rat, rats
Description: Next, a repeated oral administration toxicity test on Crj:CD(SD) rats aged 5 weeks was carried out for each of one month and six months (once-a-day oral administration in both cases). SMP-114 was repeatedly administered to male and female SD strain rats (10 rats per group) for one month in a dose of each of 10, 30, 100 and 300 mg/kg, and its subacute toxicity and the recovery by one month of the suspension of the administration were investigated. In addition, the time-course of SMP-114 concentration in serum after each of one run of the administration and 30 days of the repeated administration was investigated. […] In addition, the time-course of SMP-114 concentration in serum after each of one run of the administration, 3 months of the repeated administration and 6 months of the repeated administration was investigated. The SMP-114 concentration in serum was measured by an HPLC-fluorescence method (fluorescence wavelength: 319 nm) after extracting SMP-114 from each sample with diethyl ether under slight acidic conditions (pH 4.7).

[3] = tolerance test by a single administration, healthy person Japanese; format: in vivo, human; conditions: single dose 10, 20, 40, 80 or 120 mg, tablets, hungry, healthy male Japanese
Description: • (1) A single-administration test on healthy male Japanese (20 to 40 years old, body weight: less than 80 kg and not less than 50 kg, degree of corpulence: ±20% or less) was carried out. Using the SMP-114 tablets and a placebo as control, 10, 20, 40, 80 or 120 mg of SMP-114 was administered by a single-blind method when the subjects were hungry (at each dose, 6 cases of SMP-114 administration and 2 cases of placebo administration: 40 subjects in total). As to items of evaluation related to safety, observations about the following were carried out: vital signs (body temperature, blood pressure-pulse rate and respiration rate), 12-induction electrocardiogram, clinical examinations [hematological examination, blood biochemical examination, endocrinological examinations (FT4, FT3 and TSH), serological examination (haptoglobin) and urinalysis], and harmful matters. As items of evaluation related to pharmacokinetics, the concentrations of SMP-114 and its metabolites in serum and urine were measured. […]

[4] = repeated administration test on healthy male Caucasians (7 days), serum concentration by LC-MS/MS; format: in vivo, human; conditions: for AUC(0-t): serum, oral, read-out: AUC0-24 at the steady state
Description: A repeated administration test on healthy male Caucasians of 18 to 50 years old was carried out. Using the SMP-114 tablets and placebo tablets, 80 mg or 120 mg of each of the placebo and SMP-114 was orally administered once a day for 7 days by a placebo controlled double-blind method (at each dose, 8 cases of SMP-114 administration and 2 cases of placebo administration: 20 subjects in total).
The SMP-114 concentration in serum was measured by a LC-MS/MS method by employing the following pretreatment and measuring conditions.
1) To each of the standard sample solutions for calibration curve, the QC sample and the samples to be analyzed was added 10 mL of an internal standard solution (d5-SMP-114 5 ng/mL), and stirred.
2) To the resulting mixture were added 1 mL of 100 mmol/L ammonium acetate buffer (pH 4.0) and then 6 mL of diethyl ether, and stirred for 10 minutes, followed by centrifugation at 4° C. and 3000 rpm for 10 minutes.
3) The supernatant was transferred to a glass tube and concentrated to dryness in a nitrogen stream (40° C.) in an aluminum-blocked thermostatic chamber.
4) To the residue was added 120 μL of 50 vol % acetonitrile and the residue was redissolved with an ultrasonic bath and a Vortex mixer.
5) The solution obtained by the redissolution was transferred to a filter and centrifuged at 5000 rpm for 3 minutes.
6) The filtrate was transferred to an auto-sampler vial to obtain a sample solution for measurement.
LC-MS/MS measurement was carried out under the following conditions. However, parameters (e.g. gas volume and collision voltage) whose optimum values were variable depending on the condition of a mass spectrometer were properly changed.
Mobile phase: eluent A; 0.3 vol % acetic acid eluent B; acetonitrile
• Flow rate: 0.2 ml/min • Analytical column: Puresil C18, 2.1 mm i.d.×150 mm, […] (Waters) • Auto-sampler tray: 4° C. • Column temperature: 35° C. • Valve switching: 0-1.5 min. discard, 1.5-9.0 min. ion source for SMP-114, 9.0-15.0 min. discard • Injecting volume: […] MS/MS Conditions • Ionization method: electro-ion spray method, positive mode • MS/MS mode: SRM (selected reaction monitoring) • Monitor ion: SMP-114 Q1 m/z 395.1→Q3 m/z 199.0 (±25 eV) d5-SMP-114 Q1 m/z 400.2→Q3 m/z 204.0 (−25 eV) • Total scan time: 0.6 second (SMP-114 and d5-SMP-114) • Ionization voltage: 4.5 kV for SMP-114 • Sheath gas: 70 psi (nitrogen gas) • Auxiliary gas: 30 units (nitrogen gas) • Capillary tube temperature: 230° C. • Collision gas: 2.1-2.2 mT (argon) • Multiplier: 1300 V

[5] = test system: rats with adjuvant arthritis; conditions: cited from earlier work

## C[C@@H](c1ccc(-c2ccccc2)c(F)c1)c1cc(/N=C(/N)N2CCOCC2)on1 [SMP-114, 3-[(1S)-1-(2-fluorobiphenyl-4-yl)ethyl]-5-{[amino(morpholin-4-yl)methylene]amino}isoxazole]
[1]
  dose at which SMP-114 exhibits its efficacy: ≥ 5 mg/kg
[2]; oral, calculated for a dose of 5 mg/kg, read-out: AUC0-24 for the exhibition of efficacy
  AUC(0-t): 2710 to 3580 ng·h/mL
[2]; 6 mg/kg oral once a day for 6 months, read-out: AUC0-24
  AUC(0-t): 3250 ng·h/mL
[2]; 10 mg/kg oral once a day for one month, read-out: AUC0-24
  AUC(0-t): 7160 ng·h/mL
[3]
  side effects undesirable with respect to tolerance: observed at none of the doses
[4]; 80 mg or 120 mg oral once a day for 7 days, healthy male Caucasians
  side effects undesirable with respect to tolerance: observed at neither of the doses
[4]; human, 80 mg treated group, once a day for 7 days, healthy male Caucasians
  AUC(0-t): 10600 ng·h/mL
[4]; human, 120 mg treated group, once a day for 7 days, healthy male Caucasians
  AUC(0-t): 16700 ng·h/mL
[4]; once a day for 7 days, healthy male Caucasians
  accumulative property: no accumulative property
[4]; repeated once-a-day dose of about 120 mg or less, human
  tolerance: satisfactory
[5]; once-a-day oral administration
  minimum effective amount for antiarthritic effect: 2.5 mg/kg
[5]; rats with adjuvant arthritis
  antiarthritic effect: antiarthritic effect
